# Source: PMC11266321 (EJNMMI Radiopharmacy and Chemistry, 2024)
# Values joined by “and” are separate entries in the source; they are usually repeats but may differ in a detail not shown here. Equal entries are not always repeated.
# Assay: Tissue distribution of radioactivity in mice
# Assay type: in vivo, mouse
# Details: mean ± SD n = 4
# Procedure: [^11C]MMP (8.1 MBq/17 pmol) was injected intravenously into 8-week-old male ddY mice (37.8–42.4 g). The tracer-injected mice were housed individually in filter-paper-lined animal-rearing cages until the time of euthanasia. Mice were euthanized by cervical dislocation at 1, 5, 15, 30, 60, and 90 min after injection (n = 4 each). Blood was collected by heart puncture, and the tissues were harvested. Radioactivity excreted into urine was recovered from the cage floor and by cystocentesis from the urinary bladder. The samples were measured for ^11C radioactivity with an auto-gamma counter (Hidex-AMG, Turku, Finland) and weighed. Tissue uptake of ^11C was expressed as the percentage of injected dose per organ (%ID/organ) or the percentage of injected dose per gram of tissue (%ID/g). The tissue distribution data were extrapolated to an adult male phantom using the %kg/g method (Blau [1975]). The radiation absorbed dose and effective dose for human adults were estimated using OLINDA/EXM software (Vanderbilt University, Nashville, TN) (Stabin et al. [2005]). Effective dose was estimated using the risk-weighting factor of ICRP Publication 103 (ICRP [2007]).
structure (smiles),measurement,setting,value
"CC(C)NC(C)Cc1ccc([11CH3])cc1 (centres unmarked) [[^11C]MMP, N-isopropyl-4-[^11C]methylamphetamine]","Injected dose/g tissue (%), Blood",1 min after i.v. injection,1.40 ± 0.24 %ID/g
same,"Injected dose/g tissue (%), Bone",1 min after i.v. injection,2.21 ± 0.54 %ID/g
same,"Injected dose/g tissue (%), Brain",1 min after i.v. injection,5.75 ± 0.42 %ID/g
same,"Injected dose/g tissue (%), Heart",1 min after i.v. injection,8.23 ± 1.30 %ID/g
same,"Injected dose/g tissue (%), Kidney",1 min after i.v. injection,12.93 ± 7.10 %ID/g
same,"Injected dose/g tissue (%), Large intestine",1 min after i.v. injection,1.92 ± 0.95 %ID/g
same,"Injected dose/g tissue (%), Liver",1 min after i.v. injection,1.56 ± 0.87 %ID/g
same,"Injected dose/g tissue (%), Lung",1 min after i.v. injection,28 %ID/g and 27.53 ± 4.66 %ID/g
same,"Injected dose/g tissue (%), Muscle",1 min after i.v. injection,1.77 ± 0.86 %ID/g
same,"Injected dose/g tissue (%), Pancreas",1 min after i.v. injection,3.96 ± 1.02 %ID/g
same,"Injected dose/g tissue (%), Small intestine",1 min after i.v. injection,1.49 ± 0.84 %ID/g
same,"Injected dose/g tissue (%), Spleen",1 min after i.v. injection,1.46 ± 0.42 %ID/g
same,"Injected dose/g tissue (%), Stomach",1 min after i.v. injection,2.06 ± 1.30 %ID/g
same,"Injected dose/g tissue (%), Testis",1 min after i.v. injection,0.96 ± 0.24 %ID/g
same,"Injected dose/organ (%), Bladder",1 min after i.v. injection,0.07 ± 0.05 %ID/organ
same,"Injected dose/organ (%), Bladder + urine",1 min after i.v. injection,0.07 ± 0.05 %ID/organ
same,"Injected dose/organ (%), Brain",1 min after i.v. injection,2.28 ± 0.25 %ID/organ
same,"Injected dose/organ (%), Heart",1 min after i.v. injection,1.56 ± 0.27 %ID/organ
same,"Injected dose/organ (%), Kidney",1 min after i.v. injection,7.4 %ID/organ and 7.44 ± 4.00 %ID/organ
same,"Injected dose/organ (%), Large intestine",1 min after i.v. injection,2.47 ± 1.19 %ID/organ
same,"Injected dose/organ (%), Liver",1 min after i.v. injection,2.63 ± 1.23 %ID/organ
same,"Injected dose/organ (%), Lung",1 min after i.v. injection,5.54 ± 0.95 %ID/organ
same,"Injected dose/organ (%), Pancreas",1 min after i.v. injection,0.76 ± 0.23 %ID/organ
same,"Injected dose/organ (%), Small intestine",1 min after i.v. injection,2.74 ± 1.46 %ID/organ
same,"Injected dose/organ (%), Spleen",1 min after i.v. injection,0.17 ± 0.07 %ID/organ
same,"Injected dose/organ (%), Stomach",1 min after i.v. injection,1.59 ± 1.06 %ID/organ
same,"Injected dose/organ (%), Testis",1 min after i.v. injection,0.24 ± 0.03 %ID/organ
same,"Injected dose/organ (%), Urine",1 min after i.v. injection,0.00 ± 0.00 %ID/organ
same,"Injected dose/g tissue (%), Blood",5 min after i.v. injection,1.10 ± 0.14 %ID/g
same,"Injected dose/g tissue (%), Bone",5 min after i.v. injection,2.20 ± 0.30 %ID/g
same,"Injected dose/g tissue (%), Brain",5 min after i.v. injection,6.87 ± 0.62 %ID/g
same,"Injected dose/g tissue (%), Heart",5 min after i.v. injection,3.53 ± 0.21 %ID/g
same,"Injected dose/g tissue (%), Kidney",5 min after i.v. injection,16.26 ± 1.85 %ID/g
same,"Injected dose/g tissue (%), Large intestine",5 min after i.v. injection,2.36 ± 0.41 %ID/g
same,"Injected dose/g tissue (%), Liver",5 min after i.v. injection,4.30 ± 0.84 %ID/g
same,"Injected dose/g tissue (%), Lung",5 min after i.v. injection,21.20 ± 1.81 %ID/g
same,"Injected dose/g tissue (%), Muscle",5 min after i.v. injection,2.14 ± 0.14 %ID/g
same,"Injected dose/g tissue (%), Pancreas",5 min after i.v. injection,8.21 ± 0.70 %ID/g
same,"Injected dose/g tissue (%), Small intestine",5 min after i.v. injection,3.65 ± 0.21 %ID/g
same,"Injected dose/g tissue (%), Spleen",5 min after i.v. injection,5.09 ± 0.59 %ID/g
same,"Injected dose/g tissue (%), Stomach",5 min after i.v. injection,3.24 ± 1.94 %ID/g
same,"Injected dose/g tissue (%), Testis",5 min after i.v. injection,1.26 ± 0.25 %ID/g
same,"Injected dose/organ (%), Bladder",5 min after i.v. injection,0.09 ± 0.03 %ID/organ
same,"Injected dose/organ (%), Bladder + urine",5 min after i.v. injection,3.51 ± 1.80 %ID/organ
same,"Injected dose/organ (%), Brain",5 min after i.v. injection,2.68 ± 0.33 %ID/organ
same,"Injected dose/organ (%), Heart",5 min after i.v. injection,0.63 ± 0.05 %ID/organ
same,"Injected dose/organ (%), Kidney",5 min after i.v. injection,9.5 %ID/organ and 9.54 ± 0.98 %ID/organ
same,"Injected dose/organ (%), Large intestine",5 min after i.v. injection,2.7 %ID/organ and 2.68 ± 0.45 %ID/organ
same,"Injected dose/organ (%), Liver",5 min after i.v. injection,9.53 ± 2.41 %ID/organ
same,"Injected dose/organ (%), Lung",5 min after i.v. injection,3.21 ± 0.65 %ID/organ
same,"Injected dose/organ (%), Pancreas",5 min after i.v. injection,1.70 ± 0.23 %ID/organ
same,"Injected dose/organ (%), Small intestine",5 min after i.v. injection,6.8 %ID/organ and 6.77 ± 0.37 %ID/organ
same,"Injected dose/organ (%), Spleen",5 min after i.v. injection,0.57 ± 0.05 %ID/organ
same,"Injected dose/organ (%), Stomach",5 min after i.v. injection,1.88 ± 0.90 %ID/organ
same,"Injected dose/organ (%), Testis",5 min after i.v. injection,0.32 ± 0.06 %ID/organ
same,"Injected dose/organ (%), Urine",5 min after i.v. injection,3.42 ± 1.82 %ID/organ
same,"Injected dose/g tissue (%), Blood",15 min after i.v. injection,0.72 ± 0.23 %ID/g
same,"Injected dose/g tissue (%), Bone",15 min after i.v. injection,1.29 ± 0.18 %ID/g
same,"Injected dose/g tissue (%), Brain",15 min after i.v. injection,4.83 ± 0.21 %ID/g
same,"Injected dose/g tissue (%), Heart",15 min after i.v. injection,1.93 ± 0.18 %ID/g
same,"Injected dose/g tissue (%), Kidney",15 min after i.v. injection,11.36 ± 1.39 %ID/g
same,"Injected dose/g tissue (%), Large intestine",15 min after i.v. injection,1.59 ± 0.62 %ID/g
same,"Injected dose/g tissue (%), Liver",15 min after i.v. injection,6.07 ± 1.10 %ID/g
same,"Injected dose/g tissue (%), Lung",15 min after i.v. injection,7.97 ± 0.89 %ID/g
same,"Injected dose/g tissue (%), Muscle",15 min after i.v. injection,1.22 ± 0.10 %ID/g
same,"Injected dose/g tissue (%), Pancreas",15 min after i.v. injection,8.55 ± 1.10 %ID/g
same,"Injected dose/g tissue (%), Small intestine",15 min after i.v. injection,3.29 ± 0.83 %ID/g
same,"Injected dose/g tissue (%), Spleen",15 min after i.v. injection,4.45 ± 0.69 %ID/g
same,"Injected dose/g tissue (%), Stomach",15 min after i.v. injection,4.51 ± 1.35 %ID/g
same,"Injected dose/g tissue (%), Testis",15 min after i.v. injection,1.63 ± 0.16 %ID/g
same,"Injected dose/organ (%), Bladder",15 min after i.v. injection,0.60 ± 0.32 %ID/organ
same,"Injected dose/organ (%), Bladder + urine",15 min after i.v. injection,13.64 ± 2.31 %ID/organ
same,"Injected dose/organ (%), Brain",15 min after i.v. injection,2.12 ± 0.06 %ID/organ
same,"Injected dose/organ (%), Heart",15 min after i.v. injection,0.33 ± 0.02 %ID/organ
same,"Injected dose/organ (%), Kidney",15 min after i.v. injection,7.47 ± 1.09 %ID/organ
same,"Injected dose/organ (%), Large intestine",15 min after i.v. injection,2.13 ± 1.04 %ID/organ
same,"Injected dose/organ (%), Liver",15 min after i.v. injection,15 %ID/organ and 14.98 ± 2.48 %ID/organ
same,"Injected dose/organ (%), Lung",15 min after i.v. injection,1.47 ± 0.10 %ID/organ
same,"Injected dose/organ (%), Pancreas",15 min after i.v. injection,1.74 ± 0.24 %ID/organ
same,"Injected dose/organ (%), Small intestine",15 min after i.v. injection,6.13 ± 1.74 %ID/organ
same,"Injected dose/organ (%), Spleen",15 min after i.v. injection,0.64 ± 0.12 %ID/organ
same,"Injected dose/organ (%), Stomach",15 min after i.v. injection,2.46 ± 0.69 %ID/organ
same,"Injected dose/organ (%), Testis",15 min after i.v. injection,0.45 ± 0.05 %ID/organ
same,"Injected dose/organ (%), Urine",15 min after i.v. injection,13.03 ± 2.51 %ID/organ
same,"Injected dose/g tissue (%), Blood",30 min after i.v. injection,0.62 ± 0.21 %ID/g
same,"Injected dose/g tissue (%), Bone",30 min after i.v. injection,0.76 ± 0.26 %ID/g
same,"Injected dose/g tissue (%), Brain",30 min after i.v. injection,2.63 ± 0.22 %ID/g
same,"Injected dose/g tissue (%), Heart",30 min after i.v. injection,1.16 ± 0.22 %ID/g
same,"Injected dose/g tissue (%), Kidney",30 min after i.v. injection,7.08 ± 1.91 %ID/g
same,"Injected dose/g tissue (%), Large intestine",30 min after i.v. injection,1.22 ± 0.63 %ID/g
same,"Injected dose/g tissue (%), Liver",30 min after i.v. injection,5.46 ± 0.97 %ID/g
same,"Injected dose/g tissue (%), Lung",30 min after i.v. injection,3.68 ± 0.50 %ID/g
same,"Injected dose/g tissue (%), Muscle",30 min after i.v. injection,0.78 ± 0.17 %ID/g
same,"Injected dose/g tissue (%), Pancreas",30 min after i.v. injection,4.58 ± 0.52 %ID/g
same,"Injected dose/g tissue (%), Small intestine",30 min after i.v. injection,2.14 ± 0.67 %ID/g
same,"Injected dose/g tissue (%), Spleen",30 min after i.v. injection,2.48 ± 0.45 %ID/g
same,"Injected dose/g tissue (%), Stomach",30 min after i.v. injection,2.69 ± 0.26 %ID/g
same,"Injected dose/g tissue (%), Testis",30 min after i.v. injection,1.69 ± 0.36 %ID/g
